The conditions of this data set: 298.15 K; 101.33 kPa; Liquid; Vibrating tube method.

Each structure is given as a SMILES string. Numbers after ± are expanded uncertainties.

18 compounds from the NIST ThermoML archive (doi:10.1016/j.jct.2010.12.025) can be followed below.

As for `CCCCCN` [1-pentanamine], the molar volume was determined as 0.0001163 ± 1.1e-07 m3/mol.
With `CC(C)CN` [2-methyl-1-propanamine], the molar volume stood at 0.000101 ± 1e-07 m3/mol.
With `CCCCCCCCCCN` [1-decanamine], the molar volume amounted to 0.000199 ± 2e-07 m3/mol.
In the case of `CC(C)(C)N` [2-methyl-2-propanamine], the molar volume was 0.0001065 ± 1e-07 m3/mol.
Regarding `CC(C)N` [2-propanamine], the molar volume amounted to 8.672e-05 ± 1e-07 m3/mol.
As to `CCCCCCCCN` [1-octanamine], the molar volume worked out at 0.0001662 ± 1.1e-07 m3/mol.
With `CCCN` [propan-1-amine], the molar volume amounted to 8.315e-05 ± 1e-07 m3/mol.
To `CC(C)CCN` [3-methyl-1-butanamine] belongs 0.000117 ± 1.1e-07 m3/mol.
`CCCCCCCN` [1-heptanamine]: the molar volume is on record as 0.0001496 ± 1.1e-07 m3/mol.
On to `CCC(C)N` (stereo not drawn) [2-butanamine], for which the molar volume is reported as 0.0001019 ± 1.1e-07 m3/mol.
In the case of `CCCCCCC` [heptane], the molar volume worked out at 0.0001475 ± 1.1e-07 m3/mol.
For the compound `CCCCCCN` [1-hexanamine], the molar volume was determined as 0.0001331 ± 1.1e-07 m3/mol.
`CCCCCCCCCN` [1-aminononane]: the molar volume was determined as 0.0001829 ± 1.8e-07 m3/mol.
`CCCCCCCCCCCCN` [1-dodecanamine]: the molar volume was found to be 0.0002323 ± 2e-07 m3/mol.
In the case of `CCC(N)CC` [1-ethylpropylamine], the molar volume was determined as 0.0001172 ± 2.4e-07 m3/mol.
Turning to `CCCCN` [1-butanamine], the molar volume is given as 9.987e-05 ± 1e-07 m3/mol.
In the case of `CCCCCCCCCCCCCCN` [1-tetradecanamine], the molar volume turned out to be 0.0002655 ± 1e-07 m3/mol.
In the case of `CCC(C)(C)N` [1,1-dimethylpropylamine], the molar volume is listed as 0.0001192 ± 1.3e-07 m3/mol.
